# Measured values: patent US20220324835A1 (Nurix Therapeutics, Inc., priority 2018, published 2022)
# Columns and labels:
# Cbl-b [1] = target: T1, Cbl-b (Homo sapiens, UniProt Q13191); test: Cbl-b inhibition assay (Cbl-b activity assay, FRET, Biological Example 1; 100 mM NaCl, 60 nM Src kinase); type: biochemical
# Method in brief: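 Inhibitor activity is measured as reduced terbium-to-fluorescein FRET between streptavidin-terbium on biotinylated Cbl-b and Bodipy-fluorescein ubiquitin carried by an irreversible UbcH5B-Ub conjugate, binding of which depends on Src phosphorylation of Cbl-b.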
# T-cell [2] = test: IL-2 secretion from T-cells co-stimulated with anti-CD3 and anti-CD28 antibody (Biological Example 2); type: cell-based, human; settings: Homo sapiens, T-cell, read-out: IL-2 secretion, Anti-CD3/Anti-CD28 stimulation, fold change over baseline
# Method in brief: (§1)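 Values are fold-change over baseline: readings (IL-2 release, CD25 staining) from inhibitor-treated T-cells divided against untreated cells […]. No detailed procedure stated.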
# T-cell [3] = test: IL-2 secretion from T-cells stimulated with anti-CD3 antibody alone (Biological Example 2); type: cell-based, human; settings: Homo sapiens, T-cell, read-out: IL-2 secretion, Anti-CD3 stimulation, fold change over baseline
# T-cell [4] = test: CD25 cell surface staining on T-cells co-stimulated with anti-CD3 and anti-CD28 antibody (Biological Example 2); type: cell-based, human; settings: Homo sapiens, T-cell, read-out: CD25 staining, Anti-CD3/Anti-CD28 stimulation, fold change over baseline
# Method in brief: as §1
# T-cell [5] = test: CD25 cell surface staining on T-cells stimulated with anti-CD3 antibody alone (Biological Example 2); type: cell-based, human; settings: Homo sapiens, T-cell, read-out: CD25 staining, Anti-CD3 stimulation, fold change over baseline
# Cbl-b [6] = target: T1, Cbl-b; test: Cbl-b activity assay (Cbl-b inhibition assay), TR-FRET of Cbl-b interaction with UbcH5B-Ub; type: biochemical; settings: assay buffer with 100 mM NaCl, 60 nM Src kinase
# Method in brief: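 Compound-treated Cbl-b was incubated 1.5 h with Src kinase (60 nM final; 30 nM for asterisked values, which also used 50 mM instead of 100 mM NaCl), 1 mM ATP and 5 mM MgCl2. Binding to fluorescent Ub-loaded UbcH5B (C85K mutant) was then read by TR-FRET after 1 h more.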
# [7] = upper bound stated in text lists, read-out: IC50 values in the Cbl-b inhibition assay of Biological Example 1
# T1 sequence (Q13191 36-427): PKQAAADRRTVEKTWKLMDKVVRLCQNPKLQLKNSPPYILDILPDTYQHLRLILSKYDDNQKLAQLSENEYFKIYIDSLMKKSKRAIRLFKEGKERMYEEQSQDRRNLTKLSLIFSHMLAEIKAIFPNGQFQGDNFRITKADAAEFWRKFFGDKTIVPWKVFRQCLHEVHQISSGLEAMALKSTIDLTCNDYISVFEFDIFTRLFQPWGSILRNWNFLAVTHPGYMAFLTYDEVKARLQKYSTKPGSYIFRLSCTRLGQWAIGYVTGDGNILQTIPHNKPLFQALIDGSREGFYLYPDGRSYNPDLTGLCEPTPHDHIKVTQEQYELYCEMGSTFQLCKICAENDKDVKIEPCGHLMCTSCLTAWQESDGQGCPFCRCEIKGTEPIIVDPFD
SMILES,IC50 (Cbl-b [1]; [7]) [nM],fold induction at 0.3 µM (T-cell [2]),fold induction at 1 µM (T-cell [2]),fold induction at 1 µM (T-cell [3]),fold induction at 0.3 µM (T-cell [4]),fold induction at 1 µM (T-cell [4]),fold induction at 1 µM (T-cell [5]),IC50 (Cbl-b [6]; read-out: Cbl-b activity IC50) [µM],IC50 (Cbl-b [1]; IC50 values in the Cbl-b inhibition assay of Biological Example 1) [nM],IC50 (Cbl-b [6]; Cbl-b activity IC50 (μM)) [µM]
"CN1C2CCC1CN(c1cc3c(c(C(F)(F)F)c1)CN(c1cccc(C4(Cc5nncn5C)COC4)c1)C3=O)C2 [Compound 388, 2-(3-(3-((4-Methyl-4H-1,2,4-triazol-3-yl)methyl)oxetan-3-yl)phenyl)-6-(8-methyl-3,8-diazabicyclo[3.2.1]octan-3-yl)-4-(trifluoromethyl)isoindolin-1-one]",≤ 100,2.51 to 5,5 to 7.5,0.151 to 0.2,1.01 to 1.3,1.01 to 1.3,> 1,< 0.1,,
"Cn1cnnc1CC1(c2cccc(NC(=O)c3nc(C(F)(F)F)cs3)c2)COC1 [Compound 495, N-(3-{3-[(4-methyl-1,2,4-triazol-3-yl)methyl]oxetan-3-yl}phenyl)-4-(trifluoromethyl)-1,3-thiazole-2-carboxamide]",,1.01 to 2.5,2.51 to 5,< 0.05,1.01 to 1.3,1.01 to 1.3,0.601 to 0.8,,≤ 1000,0.301 to 1
"Cn1cnnc1CC1(c2cccc(N3Cc4c(cc(CN5C6CCC5CC6)cc4C(F)(F)F)C3=O)c2)COC1 [Example 555, 6-((7-azabicyclo[2.2.1]heptan-7-yl)methyl)-2-(3-(3-((4-methyl-4H-1,2,4-triazol-3-yl)methyl)oxetan-3-yl)phenyl)-4-(trifluoromethyl)isoindolin-1-one]",≤ 100,> 7.5,> 7.5,> 0.201,1.51 to 1.75,1.51 to 1.75,> 1,< 0.1,,
"Cn1cnnc1CC1(c2cccc(N3Cc4c(cc(CN5C6CCCC5CC6)cc4C(F)(F)F)C3=O)c2)COC1 [Example 556, 6-((8-azabicyclo[3.2.1]octan-8-yl)methyl)-2-(3-(3-((4-methyl-4H-1,2,4-triazol-3-yl)methyl)oxetan-3-yl)phenyl)-4-(trifluoromethyl)isoindolin-1-one]",≤ 100,> 7.5,> 7.5,> 0.201,> 1.76,> 1.76,> 1,< 0.1,,
"Cn1cnnc1CC1(c2cccc(N3Cc4c(cc(CN5[C@@H]6CC[C@H]5C[C@@H](F)C6)cc4C(F)(F)F)C3=O)c2)COC1 [Example 557, 6-(((1R,3r,5S)-3-fluoro-8-azabicyclo[3.2.1]octan-8-yl)methyl)-2-(3-(3-((4-methyl-4H-1,2,4-triazol-3-yl)methyl)oxetan-3-yl)phenyl)-4-(trifluoromethyl)isoindolin-1-one]",≤ 100,5 to 7.5,> 7.5,> 0.201,> 1.76,> 1.76,> 1,< 0.1,,
